Usually inhibition stands for the share of the control response that was lost under treatment.

This is an account of results in patent US20060228384A1, “Control of biofilm with a biofilm inhibitor” (Sequoia Sciences, Inc., priority 2005, published 2006).

One series deals with biofilm. Nature of the series: Biofilm Inhibition Assay (compound library screening and analogs, methods as in Example 1). It is filed as cell-based. Particulars: tested as mentioned in Example 1. The text has this: As is evident from the Biofilm Inhibiton Assay results presented in Table 1, one compound from Hit 39, SF382 confirmed biofilm inhibition after purification. […] Thus, the percentage of bacteria attached (within the biofilm) versus free-floating compared to untreated (negative) control has shifted toward free-floating upon addition of the treatment. Compound SF382 was particularly active, reducing the formation of biofilm by 50% compared to negative control. Compound SF382 is represented by structure (I).
(§1) In vitro biofilm inhibition was evaluated using a high-throughput method. This method uses standard pre-sterilized 96-well polystyrene microtiter plates. Each well was filled to a final volume of 200 μl. Initially, a concentrated compound solution is transferred into each well, except those which are used as controls, to achieve an appropriate testing concentration, typically 10 μg/ml. 150 μl of sterile media was then added, followed by 50 μl of bacterial inoculum. The plates were then placed on a shaker for 24 hours.
After the allotted growth time, the samples were removed from the shaker, rinsed and stained. The rinse involves first draining the wells, filling each well with PBS, and draining each well again. The rinse removes suspended cells from the system. […] The plate was then immediately analyzed with a microtiter plate reader. The samples and controls were analyzed in triplicate. […]

A further series relates to Propionibacterium acnes. Particulars: each compound alone; cited from earlier work.
The test system of the next series is Gram-positive bacteria. The following applies: cited from earlier work.
Series [1] has as its system clinical strains of Staphylococcus aureus. The following applies: 100 ug/ml; cited from earlier work.
The subject of series [2] is Streptococcus sobrinus 6715. The series can be described thus: Biofilm growth inhibition in polycarbonate tubes (Example 8). Particulars: 80 μg/mL. It is filed as cell-based.
Series [3] concerns human hepatocellular carcinoma cells (HepG2). The series can be described thus: In vitro cytotoxicity assessment (Example 7). Particulars: 30 or 60 μM, fluorometric detection of mitochondrial activity. It is filed as cell-based. As for the experimental part: Palmitoleic acid was tested to assess its cytotoxicity in human hepatocellular carcinoma cells (HepG2). Palmitoleic acid was tested at two concentrations of 30 and 60 μM in HepG2 cells in triplicate. Gross cytotoxicity was assayed by fluorometric detection in response to mitochondrial activity according to Nociari M M, et al. (1998) J. Immunol. Met. 213:157. Chlorpromazine was used as a positive control.

Series [4] deals with Gram-negative bacteria such as Pseudomonas aeruginosa, and Escherichia coli. Particulars: also P. acnes and several methicillin-resistant S. aureus strains; cited from earlier work.
Series [5] has as its system methicillin-resistant Staphylococcus aureus 78-13607A. Nature of the series: Antibacterial effect, NCCLS procedures (Example 3). It is filed as cell-based. Particulars: studied at 32 μg/mL, read-out: MIC (minimal inhibitory concentration). The procedure:
(§2) Using the appropriate NCCLS procedures, the antibacterial effect of palmitoleic acid on two strains of methicillin-resistant Staphylococcus aureus (ATCC 33591 and 78-13607A) was studied at 32 μg/mL.

For series [6], the system named is methicillin-resistant Staphylococcus aureus ATCC 33591. The series can be described thus: Antibacterial effect, NCCLS procedures (Example 3). It is filed as cell-based. The following applies: ATCC33591, studied at 32 μg/mL, read-out: MIC (minimal inhibitory concentration). As for the experimental part: as §2
Series [7] concerns Pseudomonas aeruginosa PA01. Nature of the series: In vitro biofilm inhibition, 96-well plate, crystal violet (Example 1). The following applies: 10 μg/mL, 24 hours. Type of series: cell-based. As for the experimental part: as §1
(§3) After the allotted growth time, the samples were removed from the shaker, rinsed and stained. The rinse involves first draining the wells, filling each well with PBS, and draining each well again. The rinse removes suspended cells from the system. The biofilm was then stained with crystal violet for 20 minutes. The wells were each rinsed 4 times to remove any excess stain from the system and then eluted with 250 μl of ethanol. The elution step improves the detection of the stain during the analyses. The plate was then immediately analyzed with a microtiter plate reader. The samples and controls were analyzed in triplicate. Each plate contains negative and positive controls. The test samples were compared to the positive and negative controls to detect any reduction in the total amount of biofilm.

In series [8] the test system is Staphylococcus epidermidis ATCC 29641. Described as above. Type of series: cell-based. The following applies: ATCC29641, 10 μg/mL, 24 hours. The procedure: as §1, §3
Series [9] can be described thus: In vivo PK study in rats (Example 9). On the set-up: species or system rat. Particulars: plasma. The procedure: Two groups of animals were prepared to evaluate palmitoleic acid. Palmitoleic acid was evaluated for two dose routes consisting of 50 mg/kg (IV) and 100 mg/kg (Oral). Three animals were assigned to the IV route group and two animals were assigned to the oral route group. Prior to dosing, a baseline blood sample was taken from each animal. At time zero, a single bolus dose of palmitoleic acid in 10% Cremophor (BASF) was given to each animal. Blood samples were taken from each animal at 1, 4, 12 and 24 hours post dosing. All blood samples were processed to plasma.
The plasma samples were extracted by adding internal standard at a concentration of 10 μg/mL to achieve a final concentration of 2 μg/mL when reconstituted. A solution of 80:20 methanol:chloroform was used to cause protein precipitation. The samples were then vortexed and centrifuged. The supernatant was decanted and the solvent was evaporated off. Samples were then analyzed and quantified by LC/MS.

The test system of another series is P. acnes. Particulars: 125 ug/ml; cited from earlier work.
Another series relates to Escherichia coli JM109. Nature of the series: Biofilm formation and growth of wild-type E. coli JM109 (Example 2). It is filed as cell-based. The following applies: compared to controls. The procedure:
(§4) Biofilm inhibition experiments were conducted using an assay adapted from the reported protocol described in Pratt and Kolter, 1998, Molecular Microbiology, 30: 285-293; Li et al., 2001, J. Bacteriol., 183: 897-908. E. coli JM109 was grown in LB with or without 0.2% glucose in 96 well plates at 37° C. for two days without shaking. To quantify the biofilm mass, the suspension culture was poured out and the biofilm was washed three times with water. The biofilm was stained with 0.1% crystal violet for 20 minutes. The plates were then washed three times with water. OD reading at 540 nm was measured to quantify the biofilm mass at the bottom of the wells. Then 95% ethanol was added to dissolve the dye at the bottom and on the wall and the OD reading at 540 nm was measured to quantify the total biofilm mass. To study the overall effect of palmitoleic acid (3.6 mg/mL in 100% ethanol as stock solution), it was added with the inoculation and a time course of biofilm mass was measured. To study if the compound can cause biofilm removal, it was added one day after inoculation. Appropriate amounts of 100% ethanol were added to each sample to eliminate the effect of solvent. Four plates were prepared for each study to give a time course. Each condition had 3-4 replicates on each plate.

In series [10] the test system is Pseudomonas aeruginosa strain PAO1. The series can be described thus: Rotating disk reactor biofilm with tobramycin, CFU enumeration (Example 5). Type of series: cell-based. Particulars: palmitoleic acid approx. 100 μg/ml 24 h then tobramycin 100 μg/ml 2 h; combined treatment compared to tobramycin alone. The procedure: Biofilm formation of P. aeruginosa was evaluated using a standardized biofilm method with a rotating disk reactor (RDR). This method provides a model resembling the formation of biofilms in cystic fibrosis patients. The rotating disk reactor consists of a one-liter glass beaker fitted with a drain spout. The bottom of the vessel contains a magnetically driven rotor with six 1.27 cm diameter coupons constructed from polystyrene. The rotor consists of a star-head magnetic stir bar upon which a disk was affixed to hold the coupons. The vessel with the stir bar was placed on a stir plate and rotated to provide fluid shear. A nutrient solution (AB Trace Medium with 0.3 mM glucose, see Table 3 below for composition) was added through a stopper in the top of the reactor at a flow rate of 5 ml/min. The reactor volume was approximately 180 ml and varied slightly between reactors depending on the placement of the drain spout and the rotational speed of the rotor. At a volume of 180 ml, the residence time of the reactors was 36 minutes. The reactors were operated at room temperature (c.a. 26° C.).
For each test, two RDRs were operated in parallel with one receiving palmitoleic acid and the other serving as an untreated control. […] The plates were incubated for 24 hours at 37° C. before colony forming units (CFU) were determined.

For series [11], the system named is Streptococcus mutans 25175. Nature of the series: Biofilm growth inhibition in polycarbonate tubes (Example 8). It is filed as cell-based. The following applies: 80 μg/mL.
A further series concerns Escherichia coli UTI89. The series can be described thus: Biofilm inhibition dose response, clinical strain (Example 4). Particulars: LB media, compared to controls. It is filed as cell-based. The procedure: as §4
Dose response experiments were conducted on palmitoleic acid as described in Example 2 at 4, 8, 16, and 32 ug/mL with E. coli UT189 in LB media.

Regarding `CCCCCCCCCCCCCCCC(=O)O` [palmitic acid], the “inhibition of the formation of biofilms” value in the series with biofilm is reported as “does not inhibit the formation of biofilms”.

Regarding `Cc1ncc([N+](=O)[O-])n1CCO` [metranidazole, reference compound], the “growth inhibition, compound alone” value with Propionibacterium acnes is reported as “neither compound alone could effectively inhibit the growth”.

For `CCCCCC/C=C\CCCCCCCC(=O)O` [palmitoleic acid], in the series with Propionibacterium acnes, the “growth inhibition, compound alone” value is given as “neither compound alone could effectively inhibit the growth”. In addition, the “typical minimal inhibitory concentration (MIC) value” with Gram-positive bacteria (growth of Gram-positive bacteria) is 10 to 20 µg/mL. Besides, the “synergistic effect with mupirocin” value with Gram-positive bacteria (palmitoleic acid and mupirocin against Gram-positive bacteria) is “no synergistic effect was observed”. In addition, the inhibitory effect result in series [1] is “no inhibitory effect”. Besides, the inhibition at 80 µg/mL in [2] and in [11] was more than 75% in each case. In addition, the cytotoxicity result in [3] is reported as “not observed”. Besides, the growth inhibition result in series [4] was “could not inhibit the growth”; in the series on P. acnes, “failed to inhibit the growth”. Further, the MIC in [5] and in series [6] was more than 32 µg/mL each time. The results for the inhibition at 10 µg/mL in series [7] and in series [8] were 55% and 80%, respectively. The AUC was 123 µg/mL/h in series [9] (IV 50 mg/kg single bolus in 10% Cremophor) and 219.71 µg/mL/h in series [9] (oral 100 mg/kg single dose in 10% Cremophor). The “inhibition of total biofilm formation (reduction)” value in the series on Escherichia coli JM109 (approximately 20 μM, added with inoculation) is “about 60%”. Also, the “inhibitory effect on growth” value with Escherichia coli JM109 was “no inhibitory effect”. The “reduction of CFUs” value in series [10] was 60%. Besides, the inhibition at 4 µg/mL with Escherichia coli UTI89 (4 μg/mL) was approximately 10%. Further, the inhibition at 8 µg/mL in the series on Escherichia coli UTI89 (8 μg/mL) was approximately 55%. For the same compound, in the series on Escherichia coli UTI89 (16 μg/mL), the inhibition at 16 µg/mL was approximately 70%. In the series on Escherichia coli UTI89 (32 μg/mL), this compound had an inhibition at 32 µg/mL of approximately 80%.
